Structures can show the parent of a compound that is named as a salt. Active and inactive are the calls of the source.
What was measured:
[1] = biological target: T1, Beta-adrenergic receptor kinase 1 (Homo sapiens, UniProt P25098); assay: aptamer displacement from bead-bound GRK2 – biochemical, cherry pick 1, bead flow cytometry, dose response (AID 504500)
[2] = biological target: T2, Apoptotic protease-activating factor 1 (Homo sapiens, UniProt O14727); assay: activation of Apaf-1 mediated apoptosis – fluorescent, uHTS hits, dose response (AID 588554); format: functional
T2 sequence (O14727 whole entry): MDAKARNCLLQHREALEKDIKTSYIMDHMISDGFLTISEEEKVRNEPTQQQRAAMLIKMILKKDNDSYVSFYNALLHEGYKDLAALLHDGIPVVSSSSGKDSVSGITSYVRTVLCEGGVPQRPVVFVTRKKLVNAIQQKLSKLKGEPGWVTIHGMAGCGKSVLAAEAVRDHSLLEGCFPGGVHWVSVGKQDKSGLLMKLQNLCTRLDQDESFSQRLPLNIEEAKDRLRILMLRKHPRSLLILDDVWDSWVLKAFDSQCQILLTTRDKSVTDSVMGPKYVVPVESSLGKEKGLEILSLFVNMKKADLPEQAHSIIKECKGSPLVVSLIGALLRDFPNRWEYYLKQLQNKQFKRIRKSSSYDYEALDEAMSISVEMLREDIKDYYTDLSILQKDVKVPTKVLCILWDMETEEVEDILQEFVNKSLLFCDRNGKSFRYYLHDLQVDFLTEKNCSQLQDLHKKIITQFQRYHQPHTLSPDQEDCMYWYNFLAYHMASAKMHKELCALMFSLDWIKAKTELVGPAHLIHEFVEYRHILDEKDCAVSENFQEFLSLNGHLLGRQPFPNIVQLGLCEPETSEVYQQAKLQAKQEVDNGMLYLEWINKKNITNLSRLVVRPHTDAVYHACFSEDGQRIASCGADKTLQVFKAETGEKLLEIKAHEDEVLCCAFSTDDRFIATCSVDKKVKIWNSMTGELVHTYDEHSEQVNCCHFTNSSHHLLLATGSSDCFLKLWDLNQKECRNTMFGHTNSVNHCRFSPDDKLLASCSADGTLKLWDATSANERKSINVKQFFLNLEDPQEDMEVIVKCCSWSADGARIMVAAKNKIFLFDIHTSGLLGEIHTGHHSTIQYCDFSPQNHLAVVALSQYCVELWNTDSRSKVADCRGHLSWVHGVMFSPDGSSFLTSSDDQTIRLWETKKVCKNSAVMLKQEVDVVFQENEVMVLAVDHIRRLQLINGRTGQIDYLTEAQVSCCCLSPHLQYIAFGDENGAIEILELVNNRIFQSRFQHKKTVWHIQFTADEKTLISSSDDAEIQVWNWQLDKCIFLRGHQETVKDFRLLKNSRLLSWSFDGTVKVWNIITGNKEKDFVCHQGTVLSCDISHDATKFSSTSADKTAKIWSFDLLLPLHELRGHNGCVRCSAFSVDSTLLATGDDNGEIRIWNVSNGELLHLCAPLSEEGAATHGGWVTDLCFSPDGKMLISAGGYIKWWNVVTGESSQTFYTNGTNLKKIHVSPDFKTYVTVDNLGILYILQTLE

[3] = biological target: T1, Beta-adrenergic receptor kinase 1; assay: GRK2 inhibitors displacing RNA aptamer, dose response, biochemical, flow cytometry beads, FAM-aptamer, powder set 1 (AID 588720)
[4] = biological target: T3, Carboxy-terminal domain RNA polymerase II polypeptide A small phosphatase 1 (Homo sapiens, UniProt Q9GZU7); assay: inhibitors of CTDSP1, concentration-response testing, biochemical assay, absorbance-based, actives from ultra-high-throughput screening (AID 540297); format: functional
T3 sequence (Q9GZU7 whole entry): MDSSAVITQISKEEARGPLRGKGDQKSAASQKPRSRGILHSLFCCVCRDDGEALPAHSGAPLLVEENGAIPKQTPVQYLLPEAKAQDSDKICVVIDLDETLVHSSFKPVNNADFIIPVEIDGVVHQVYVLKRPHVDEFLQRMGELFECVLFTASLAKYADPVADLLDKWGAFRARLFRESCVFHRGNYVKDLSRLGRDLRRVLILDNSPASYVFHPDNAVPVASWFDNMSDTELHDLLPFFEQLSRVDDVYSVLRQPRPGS

Protein S100-A4 = Protein S100-A4 (Homo sapiens, UniProt P26447); assay: S100A4-myosin IIA binding inhibitor potency, dose response, biochemical, fluorescence polarization, cherry-picked hits (AID 687001); format: functional
Chain of Protein S100-A4 (P26447 whole entry): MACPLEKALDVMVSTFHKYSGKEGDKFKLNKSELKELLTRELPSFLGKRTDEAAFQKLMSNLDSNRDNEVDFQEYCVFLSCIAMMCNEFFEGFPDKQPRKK

Caspase-6 = biological target: T4, Caspase-6 (Homo sapiens, UniProt P55212); assay: human caspase-6 inhibitors, dose response, biochemical, VEID-R110 fluorescence, cherry-pick (AID 720632)
T4 sequence (P55212 whole entry): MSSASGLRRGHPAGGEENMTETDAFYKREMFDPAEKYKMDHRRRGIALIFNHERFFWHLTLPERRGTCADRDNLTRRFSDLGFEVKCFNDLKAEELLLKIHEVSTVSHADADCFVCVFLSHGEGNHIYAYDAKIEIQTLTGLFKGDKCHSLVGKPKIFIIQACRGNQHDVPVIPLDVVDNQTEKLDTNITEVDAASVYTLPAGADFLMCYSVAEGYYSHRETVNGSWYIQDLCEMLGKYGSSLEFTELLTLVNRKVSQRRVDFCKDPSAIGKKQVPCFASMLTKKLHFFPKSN

Caspase-7 = Caspase-7 (Homo sapiens, UniProt P55210); assay: human caspase-7 inhibitors, dose response, selectivity assay for caspase-6 inhibitor project, biochemical, DEVD-R110 fluorescence, cherry-pick (AID 743295)
Chain of Caspase-7 (P55210 24-198 limits assumed): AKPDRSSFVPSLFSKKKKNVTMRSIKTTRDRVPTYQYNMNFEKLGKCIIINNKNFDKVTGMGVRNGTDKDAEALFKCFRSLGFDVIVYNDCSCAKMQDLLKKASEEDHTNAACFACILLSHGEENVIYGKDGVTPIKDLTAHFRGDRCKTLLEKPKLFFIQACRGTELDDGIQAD
Chain of Caspase-7 (P55210 207-303 limits assumed): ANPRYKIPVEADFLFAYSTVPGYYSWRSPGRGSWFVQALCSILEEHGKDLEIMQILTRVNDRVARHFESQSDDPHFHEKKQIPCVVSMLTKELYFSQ

[5] = biological target: Peroxisome proliferator-activated receptor gamma/Nuclear receptor corepressor 2 (Homo sapiens, UniProt P37231+Q9Y618); assay: Counterscreen for NR2E3 inverse agonists: TR-FRET-based biochemical high throughput dose response assay to identify inverse agonists of the interaction between peroxisome proliferator-activated receptor gamma (PPARg) and nuclear receptor co-repressor 2 (NCOR2).; format: functional
[6] = biological target: Photoreceptor-specific nuclear receptor (Homo sapiens, UniProt Q9Y5X4); assay: NR2E3 inverse agonists, dose response, biochemical, TR-FRET (AID 463256); format: functional
Chain of Photoreceptor-specific nuclear receptor (Q9Y5X4 whole entry): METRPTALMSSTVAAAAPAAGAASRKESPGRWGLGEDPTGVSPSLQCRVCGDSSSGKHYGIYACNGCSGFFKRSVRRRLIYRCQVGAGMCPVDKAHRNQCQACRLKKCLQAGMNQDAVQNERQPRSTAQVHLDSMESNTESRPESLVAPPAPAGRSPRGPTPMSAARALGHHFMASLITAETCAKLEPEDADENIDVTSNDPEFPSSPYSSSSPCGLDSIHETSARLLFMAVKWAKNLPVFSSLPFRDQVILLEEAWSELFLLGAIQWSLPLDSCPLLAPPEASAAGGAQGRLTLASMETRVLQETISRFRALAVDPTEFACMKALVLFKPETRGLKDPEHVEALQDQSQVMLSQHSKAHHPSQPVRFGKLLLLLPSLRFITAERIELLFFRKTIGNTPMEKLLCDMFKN

[7] = biological target: T5, Endoribonuclease toxin MazF (Escherichia coli K-12, UniProt P0AE70); assay: MazF toxin RNase activators, dose response, biochemical, fluorescence, single-stranded RNA substrate, uHTS hits (AID 588481); format: functional
T5 sequence (P0AE70 whole entry): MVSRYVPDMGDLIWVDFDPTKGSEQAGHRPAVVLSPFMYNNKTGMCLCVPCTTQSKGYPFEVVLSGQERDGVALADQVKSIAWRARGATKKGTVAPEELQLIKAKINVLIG

[8] = biological target: T5, Endoribonuclease toxin MazF; assay: fluorescent RNA oligo signal without MazF, dose response, counter-screen for MazEF activator project, biochemical, fluorescence, single-stranded RNase substrate (AID 588502); format: functional
HEK293 = assay: inhibitors of LMP1-driven NF-kB reporter, dose response, cell-based, HEK293, luciferase, cherry-pick (AID 588343); format: functional; details: Homo sapiens
[9] = Shn3 3'UTR reporter inhibitors, dose response, cell-based, Clone20 osteoblasts, firefly luciferase, cherry-picked (AID 624132); format: functional;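 also: firefly luciferase luminescence from reporter carrying the Shn3 3'UTR in osteoblasts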
[10] = HepG2 cell cytotoxicity, dose response, cytotoxicity control for Shn3 inhibitor project, CellTiter-Glo, cherry-picked (AID 624134); format: functional, cell-based
[11] = control 3'UTR Renilla luciferase suppression, dose response, counter-screen for Shn3 inhibitor project, cell-based, Clone20-Shn3RL, cherry-picked (AID 624133); format: functional
[12] = Lymphoblastoid Cells (LCL) Cytotoxicity Secondary Assay Measured in Cell-Based System Using Plate Reader - 2122-03_Inhibitor_Dose_CherryPick_Activity_Set2. [Related pubchem assays (depositor defined):AID504586]
[13] = inhibitors of firefly luciferase expression or activity, dose response, H4 neuroglioma cells, luminescence (AID 1990); format: functional, cell-based
BJ [14] = assay: cytotoxicity toward BJ-TERT fibroblasts, dose response, cell-based, RAS-independent, luminescence (AID 1933); format: functional; details: Homo sapiens
[15] = Luminescence Cell-Based Dose Response HTS to Identify Inhibitors of 5'UTR Stem-Loop Driven Prion Protein mRNA Translation in H4 Neuroglioblastoma Cells. [Related pubchem assays: 1827 (Project Summary), 1813 (Primary HTS)]; format: functional
[16] = inhibitors of SNCA 5'UTR-driven reporter translation, confirmation, H4 neuroglioma cells, luminescence (AID 1988); format: functional, cell-based
BJ [17] = assay: cells; format: functional, cell-based; details: Homo sapiens
BJ [18] = assay: cytotoxicity toward BJ-TERT-LT-ST fibroblasts, dose response, cell-based, RAS-independent, luminescence (AID 1935); format: functional; details: Homo sapiens;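 also: BJ fibroblasts immortalized with TERT plus LT and ST oncogenes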
[19] = cytotoxicity toward DRD oncogenic fibroblasts, dose response, cell-based, non-viral oncogenic, luminescence (AID 1934); format: functional; details: Homo sapiens
[20] = biological target: C-C chemokine receptor type 6 (Homo sapiens, UniProt P51684); assay: CCR6 receptor antagonists, dose response, cell-based, luminescent beta-arrestin readout (AID 504728); format: functional
Chain of C-C chemokine receptor type 6 (P51684 whole entry): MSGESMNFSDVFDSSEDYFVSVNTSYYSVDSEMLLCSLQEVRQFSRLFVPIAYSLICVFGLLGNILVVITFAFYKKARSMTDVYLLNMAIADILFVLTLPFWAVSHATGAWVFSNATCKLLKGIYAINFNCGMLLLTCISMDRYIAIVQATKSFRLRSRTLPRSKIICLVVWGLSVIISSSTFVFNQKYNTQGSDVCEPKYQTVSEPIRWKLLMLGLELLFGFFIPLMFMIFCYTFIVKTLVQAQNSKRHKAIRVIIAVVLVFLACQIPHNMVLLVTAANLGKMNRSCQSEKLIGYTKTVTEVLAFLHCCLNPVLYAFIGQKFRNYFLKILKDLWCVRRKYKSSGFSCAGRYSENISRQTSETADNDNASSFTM

Bcl-2-related protein A1 = biological target: T6, Bcl-2-related protein A1 (Mus musculus, UniProt Q07440); format: functional;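 also: confirmatory dose–response counterscreen on Bfl-1, used to check hits from a UBC13 polyubiquitin inhibitor campaign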
T6 sequence (Q07440 whole entry): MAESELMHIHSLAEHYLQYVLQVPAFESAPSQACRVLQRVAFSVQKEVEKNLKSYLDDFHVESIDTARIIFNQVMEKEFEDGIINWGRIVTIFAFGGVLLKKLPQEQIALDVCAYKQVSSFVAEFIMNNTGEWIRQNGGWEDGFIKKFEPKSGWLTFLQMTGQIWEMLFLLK

[21] = biological target: T7, Ubiquitin-conjugating enzyme E2 N (Homo sapiens, UniProt P61088); format: functional
T7 sequence (P61088 whole entry): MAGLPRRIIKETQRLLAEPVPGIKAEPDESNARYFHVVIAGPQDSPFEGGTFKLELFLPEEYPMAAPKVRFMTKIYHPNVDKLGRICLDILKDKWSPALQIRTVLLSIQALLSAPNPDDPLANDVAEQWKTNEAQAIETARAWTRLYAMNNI

Beta-galactosidase = Beta-galactosidase (Escherichia coli, UniProt Q8VNN2); assay: beta-galactosidase enzyme inhibitors and activators, dose response, artefact control for CCR6 antagonist project, biochemical, E. coli enzyme, set 3 (AID 504712); format: functional
Chain of Beta-galactosidase (Q8VNN2 whole entry): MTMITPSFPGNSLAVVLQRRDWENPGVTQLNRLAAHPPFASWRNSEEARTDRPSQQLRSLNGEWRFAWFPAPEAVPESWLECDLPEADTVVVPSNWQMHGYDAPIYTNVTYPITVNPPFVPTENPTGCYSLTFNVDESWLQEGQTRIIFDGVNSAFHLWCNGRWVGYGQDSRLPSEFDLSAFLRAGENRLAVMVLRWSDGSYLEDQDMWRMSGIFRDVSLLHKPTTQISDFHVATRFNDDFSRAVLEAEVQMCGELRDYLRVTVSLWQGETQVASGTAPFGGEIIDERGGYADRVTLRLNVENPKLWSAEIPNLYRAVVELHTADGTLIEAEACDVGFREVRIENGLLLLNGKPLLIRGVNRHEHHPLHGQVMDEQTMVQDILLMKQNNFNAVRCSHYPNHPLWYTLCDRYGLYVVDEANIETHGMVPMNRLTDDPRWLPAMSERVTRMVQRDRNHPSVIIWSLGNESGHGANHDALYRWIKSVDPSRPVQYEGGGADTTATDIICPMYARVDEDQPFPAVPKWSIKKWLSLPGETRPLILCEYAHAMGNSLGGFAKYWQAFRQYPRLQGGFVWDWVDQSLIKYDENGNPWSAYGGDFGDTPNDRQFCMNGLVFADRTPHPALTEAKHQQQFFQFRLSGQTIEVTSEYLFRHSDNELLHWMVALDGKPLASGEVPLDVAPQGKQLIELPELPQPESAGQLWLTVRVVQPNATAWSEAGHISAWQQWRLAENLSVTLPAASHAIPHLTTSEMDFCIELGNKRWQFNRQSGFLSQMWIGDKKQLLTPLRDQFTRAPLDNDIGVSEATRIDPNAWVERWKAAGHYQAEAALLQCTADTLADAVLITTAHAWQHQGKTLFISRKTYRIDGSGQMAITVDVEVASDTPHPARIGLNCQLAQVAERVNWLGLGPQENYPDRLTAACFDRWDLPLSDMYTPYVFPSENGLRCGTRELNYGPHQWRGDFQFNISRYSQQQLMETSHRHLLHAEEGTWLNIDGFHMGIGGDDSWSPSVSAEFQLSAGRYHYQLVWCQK

[22] = biological target: T7, Ubiquitin-conjugating enzyme E2 N; format: functional; remark: listed apart in the source
BJ [23] = assay: cytotoxicity toward Ras-transformed BJeLR fibroblasts, dose response, cell-based, alamar blue fluorescence, cherrypicked samples (AID 2631); format: functional; details: Homo sapiens;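 also: confirmatory dose-response assay in RAS-dependent BJ fibroblasts engineered with TERT, LT and ST, with cytotoxicity read by fluorescence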
[24] = biological target: T8, DNA repair protein RAD52 homolog (Homo sapiens, UniProt P43351); format: functional, biochemical
T8 sequence (P43351 whole entry): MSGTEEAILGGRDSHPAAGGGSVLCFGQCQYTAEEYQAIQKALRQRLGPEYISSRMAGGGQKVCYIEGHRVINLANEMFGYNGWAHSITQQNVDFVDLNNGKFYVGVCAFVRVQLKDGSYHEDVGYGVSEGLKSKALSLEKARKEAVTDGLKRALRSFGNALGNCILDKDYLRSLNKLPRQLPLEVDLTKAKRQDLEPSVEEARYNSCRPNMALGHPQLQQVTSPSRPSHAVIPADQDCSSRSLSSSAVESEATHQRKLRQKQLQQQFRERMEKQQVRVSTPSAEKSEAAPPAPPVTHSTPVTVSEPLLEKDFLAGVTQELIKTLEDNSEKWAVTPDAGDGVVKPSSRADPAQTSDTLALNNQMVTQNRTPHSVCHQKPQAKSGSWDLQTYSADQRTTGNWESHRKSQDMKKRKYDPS

Paired box protein Pax-8 = Paired box protein Pax-8 (Homo sapiens, UniProt Q06710); assay: inhibitors of PAX8-driven TPO luciferase reporter, dose response, RMG-I cells, cherry-pick (AID 687027); format: functional, cell-based;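 also: luciferase reporter driven by Pax8 target thyroperoxidase promoter measured by SteadyGlo luminescence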
Chain of Paired box protein Pax-8 (Q06710 whole entry): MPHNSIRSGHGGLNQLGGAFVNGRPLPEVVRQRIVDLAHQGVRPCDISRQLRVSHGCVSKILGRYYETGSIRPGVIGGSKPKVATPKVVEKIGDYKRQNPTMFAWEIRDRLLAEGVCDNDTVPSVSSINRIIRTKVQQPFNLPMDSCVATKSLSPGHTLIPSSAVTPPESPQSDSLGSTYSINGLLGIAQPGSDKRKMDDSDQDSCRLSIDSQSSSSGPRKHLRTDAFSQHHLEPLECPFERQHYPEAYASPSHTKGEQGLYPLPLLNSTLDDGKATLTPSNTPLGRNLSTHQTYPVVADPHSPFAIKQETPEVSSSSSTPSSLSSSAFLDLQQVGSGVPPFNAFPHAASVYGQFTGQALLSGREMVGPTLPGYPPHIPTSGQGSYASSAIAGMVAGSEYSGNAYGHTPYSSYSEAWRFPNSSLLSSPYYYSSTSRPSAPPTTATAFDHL

[25] = non-specific cell cytotoxicity, dose response, cytotoxicity control for PAX8 inhibitor project, plate reader, dry powder samples (AID 743021); format: functional, cell-based

T1 sequence (P25098 whole entry): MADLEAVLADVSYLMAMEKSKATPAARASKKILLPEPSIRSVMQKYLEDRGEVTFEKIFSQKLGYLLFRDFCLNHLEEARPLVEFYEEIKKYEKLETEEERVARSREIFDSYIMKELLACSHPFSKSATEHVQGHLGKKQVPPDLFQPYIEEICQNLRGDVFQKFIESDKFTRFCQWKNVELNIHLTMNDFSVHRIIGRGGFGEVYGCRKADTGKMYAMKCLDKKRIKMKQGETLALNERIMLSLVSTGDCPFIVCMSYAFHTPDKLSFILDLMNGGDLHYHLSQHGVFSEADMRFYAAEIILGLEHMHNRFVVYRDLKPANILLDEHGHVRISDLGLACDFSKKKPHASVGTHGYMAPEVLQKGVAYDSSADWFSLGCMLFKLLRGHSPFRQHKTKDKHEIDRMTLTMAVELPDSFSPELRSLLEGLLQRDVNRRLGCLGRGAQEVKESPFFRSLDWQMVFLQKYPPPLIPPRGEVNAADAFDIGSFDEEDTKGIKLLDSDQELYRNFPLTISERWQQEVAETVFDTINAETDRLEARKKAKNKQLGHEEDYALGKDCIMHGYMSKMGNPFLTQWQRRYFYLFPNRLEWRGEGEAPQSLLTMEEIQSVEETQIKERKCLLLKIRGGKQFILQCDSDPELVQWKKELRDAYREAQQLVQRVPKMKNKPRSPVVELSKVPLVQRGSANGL

COc1ccc([N+](=O)[O-])cc1NC(=O)CCS(=O)(=O)c1ccc(Br)cc1
EC50 [1]: 15 µM (inactive)
EC50 [2]: 12.2 µM (active)
EC50 [3]: 1.45 µM (active)
IC50 [4]: 4.79 µM (active)
AC50 (Protein S100-A4): 4.1 µM (active)
AC50 (Caspase-6): 3.61 µM (active)
AC50 (Caspase-7): > 70 µM (inactive)

Cn1nc(-c2ccc(C(=O)Nc3cccc(Cl)c3)cc2)c2ccccc2c1=O
IC50 [5]: 1.78 µM (active)
IC50 [6]: 3.95 µM (active)
EC50 [7]: 57.9 µM (inactive)
EC50 [8]: 14.8 µM (active)

CCc1cc2c(N3CCN(c4ccccc4)CC3)ncnc2s1
AC50 (HEK293): 26.7 µM (active)
AC50 [9]: 6.18 µM (active)
AC50 [10]: 34 µM (active)
AC50 [11]: 11.3 µM (active)
AC50 [12]: 26.2 µM (active)

CCCCCNC(=N)N/N=C/c1c[nH]c2ccc(OC)cc12 [TEGASEROD MALEATE]
EC50 [13]: > 60 µM (not active)
EC50 (BJ [14]): 5.21 µM (inconclusive)
EC50 [15]: > 120 µM (not active)
EC50 [16]: 7.96 µM (active)
EC50 (BJ [17]): 7.15 µM (active)
EC50 (BJ [18]): 3.94 µM (active)
EC50 [19]: 5.36 µM (inconclusive)
IC50 [20]: 23.4 µM (inactive)
IC50 (Bcl-2-related protein A1): > 20 µM (inactive)
IC50 [21]: 12.5 µM (active)
IC50 (Beta-galactosidase): > 66.6 µM (inactive)
IC50 [22]: 8.2 µM (active)
EC50 (BJ [23]): 3.92 µM (inconclusive)
AC50 [24]: 16.7 µM (active)
AC50 (Paired box protein Pax-8): 12.4 µM (active)
AC50 [25]: 23.2 µM (active)
